The source of these data is ChEMBL document CHEMBL3992540, “Novel indolin-2-one-based sulfonamides as carbonic anhydrase inhibitors: Synthesis, in vitro biological evaluation against carbonic anhydrases isoforms I, II, IV and VII and molecular docking studies” (Eur J Med Chem, 2017).

SMILES strings stand for the structures. Bounds are passed on as bounds.

One experiment has as its target Carbonic anhydrase 1 (Homo sapiens, UniProt P00915). Briefly: Inhibition of human recombinant carbonic anhydrase 1 incubated for 15 mins prior to testing by stopped-flow CO2 hydration assay.
A further experiment deals with Carbonic anhydrase 7 (Homo sapiens, UniProt P43166). Briefly: Inhibition of human recombinant carbonic anhydrase 7 incubated for 15 mins prior to testing by stopped-flow CO2 hydration assay.
Another experiment deals with Carbonic anhydrase 2 (Homo sapiens, UniProt P00918). Briefly: Inhibition of human recombinant carbonic anhydrase 2 incubated for 15 mins prior to testing by stopped-flow CO2 hydration assay.
The next experiment concerns the target Carbonic anhydrase 4 (Homo sapiens, UniProt P22748). Briefly: Inhibition of human recombinant carbonic anhydrase 4 incubated for 15 mins prior to testing by stopped-flow CO2 hydration assay.

Chain of Carbonic anhydrase 1 (P00915 whole entry): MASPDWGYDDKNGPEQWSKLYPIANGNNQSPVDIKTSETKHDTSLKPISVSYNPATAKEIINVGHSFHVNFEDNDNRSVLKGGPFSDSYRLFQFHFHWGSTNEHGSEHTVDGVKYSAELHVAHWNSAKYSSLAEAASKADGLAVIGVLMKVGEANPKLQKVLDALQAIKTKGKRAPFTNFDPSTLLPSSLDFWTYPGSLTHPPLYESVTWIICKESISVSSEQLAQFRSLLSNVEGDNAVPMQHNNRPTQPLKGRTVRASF
Chain of Carbonic anhydrase 4 (P22748 whole entry): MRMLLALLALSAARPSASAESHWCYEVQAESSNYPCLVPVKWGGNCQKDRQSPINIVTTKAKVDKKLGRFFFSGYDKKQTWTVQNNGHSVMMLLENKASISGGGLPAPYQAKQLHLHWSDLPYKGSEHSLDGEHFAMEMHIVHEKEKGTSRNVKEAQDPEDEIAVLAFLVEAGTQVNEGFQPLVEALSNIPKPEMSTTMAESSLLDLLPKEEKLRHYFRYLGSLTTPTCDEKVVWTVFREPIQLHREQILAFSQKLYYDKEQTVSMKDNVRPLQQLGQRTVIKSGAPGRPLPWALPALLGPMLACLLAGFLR
Chain of Carbonic anhydrase 7 (P43166 whole entry): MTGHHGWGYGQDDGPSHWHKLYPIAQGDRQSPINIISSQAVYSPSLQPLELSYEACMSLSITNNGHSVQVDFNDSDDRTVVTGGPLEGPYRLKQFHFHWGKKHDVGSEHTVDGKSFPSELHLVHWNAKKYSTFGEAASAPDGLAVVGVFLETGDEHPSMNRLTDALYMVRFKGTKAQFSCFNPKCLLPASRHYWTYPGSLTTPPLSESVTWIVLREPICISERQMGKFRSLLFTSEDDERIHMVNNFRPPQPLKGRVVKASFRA

As to `NS(=O)(=O)c1ccc(CC/N=C2\NC(=O)/C(=C3/C(=O)Nc4ccc(Br)cc43)S2)cc1`, the Ki was 3.6 µM on Carbonic anhydrase 1, 0.0793 µM at Carbonic anhydrase 7, 0.157 µM at Carbonic anhydrase 2 and 0.0407 µM on Carbonic anhydrase 4.
In the case of `NS(=O)(=O)c1ccc(CC/N=C2\C(=O)Nc3ccccc32)cc1`, the Ki at Carbonic anhydrase 1 stood at 0.0925 µM.
Same read-out and setting: for `Cc1ccc2c(c1)/C(=N/CCc1ccc(S(N)(=O)=O)cc1)C(=O)N2` the value was 0.316 µM.
For `NS(=O)(=O)c1ccc(CC/N=C2\C(=O)N(Cc3ccccc3)c3ccccc32)cc1`, the Ki on Carbonic anhydrase 1 was determined as 0.746 µM; at Carbonic anhydrase 7 it was 0.536 µM.
For `CN1C(=O)/C(=N\CCc2ccc(S(N)(=O)=O)cc2)c2ccccc21`, the Ki is 0.042 µM on Carbonic anhydrase 1 and 0.0286 µM at Carbonic anhydrase 7.
With `NS(=O)(=O)c1ccc(CC/N=C2\C(=O)Nc3ccc(Cl)cc32)cc1`, on Carbonic anhydrase 1, the Ki came out at 0.0641 µM.
As to `Cc1cc(C)c2c(c1)/C(=N/CCc1ccc(S(N)(=O)=O)cc1)C(=O)N2`, the figures for the Ki on Carbonic anhydrase 1, at Carbonic anhydrase 7 and at Carbonic anhydrase 2 were 0.256 µM, 0.0909 µM and 0.0505 µM, respectively.
Turning to `NS(=O)(=O)c1ccc(CC/N=C2\C(=O)N(Cc3ccccc3)c3ccc(Br)cc32)cc1`, the Ki at Carbonic anhydrase 1 worked out at 6.15 µM.
For the compound `NS(=O)(=O)c1ccc(CC/N=C2\NC(=O)/C(=C3/C(=O)Nc4ccccc43)S2)cc1`, the Ki on Carbonic anhydrase 1 was determined as 0.875 µM; on Carbonic anhydrase 2 it was 0.262 µM.
Take `Cc1ccc2c(c1)/C(=C1/S/C(=N/CCc3ccc(S(N)(=O)=O)cc3)NC1=O)C(=O)N2`: the Ki at Carbonic anhydrase 1 came to 0.845 µM; on Carbonic anhydrase 7, 0.0672 µM; at Carbonic anhydrase 2, 0.0639 µM.
For the compound `NS(=O)(=O)c1ccc(CC/N=C2\NC(=O)CS2)cc1`, the Ki came to 0.0939 µM at Carbonic anhydrase 1, 0.0132 µM on Carbonic anhydrase 7, 0.0066 µM on Carbonic anhydrase 2 and 0.0794 µM at Carbonic anhydrase 4.
Consider `NS(=O)(=O)c1ccc(CC/N=C2\C(=O)Nc3ccc(Br)cc32)cc1`, for which the Ki on Carbonic anhydrase 1 was 0.0815 µM.
On to `NS(=O)(=O)c1ccc(CC/N=C2\NC(=O)/C(=C3/C(=O)Nc4ccc(Cl)cc43)S2)cc1`, for which the results for the Ki at Carbonic anhydrase 1 and at Carbonic anhydrase 2 were 4.45 µM and 0.302 µM, respectively.
Regarding `CN1C(=O)/C(=N\CCc2ccc(S(N)(=O)=O)cc2)c2cc(Cl)ccc21`, the Ki at Carbonic anhydrase 1 came to 0.668 µM; at Carbonic anhydrase 7, 0.091 µM; at Carbonic anhydrase 2, 0.0077 µM; on Carbonic anhydrase 4, 0.0312 µM.
Consider `COc1ccc2c(c1)/C(=N/CCc1ccc(S(N)(=O)=O)cc1)C(=O)N2`, for which the Ki on Carbonic anhydrase 1 was found to be 0.206 µM.
Consider `CN1C(=O)/C(=N\CCc2ccc(S(N)(=O)=O)cc2)c2cc(Br)ccc21`, for which the Ki at Carbonic anhydrase 1 worked out at 0.0649 µM; at Carbonic anhydrase 2 it was 0.0059 µM.
Taken in the same sequence, the figures for `NS(=O)(=O)c1ccc(CC/N=C2\NC(=O)/C(=C3/C(=O)Nc4ccc([N+](=O)[O-])cc43)S2)cc1` were 0.265 µM and 0.0286 µM.
For the compound `NS(=O)(=O)c1ccc(CC/N=C2\C(=O)N(Cc3ccccc3)c3ccc(Cl)cc32)cc1`, the figures for the Ki on Carbonic anhydrase 1 and at Carbonic anhydrase 7 were 8.55 µM and more than 10 µM, respectively.
